Laboratory results reported in publication PMC6409085, “Three odorant-binding proteins are involved in the behavioral response of Sogatella furcifera to rice plant volatiles” (PeerJ, 2019).
“And” between values parts separate entries of the source, which are not always exact repeats. Equal values may be shown once.

What was measured:
[1] = molecular target: SfurOBP1 (Sogatella furcifera, UniProt V5T8N5); experiment: biochemical; type: binding; settings: for Fluorescence competitive binding assay, fluorescence intensity: OBP1, three replicate columns
How it was run: (§1)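 Fluorescence competitive binding with 1-NPN as reporter: 2.0 µM protein and 2.0 µM 1-NPN in 50 mM Tris-HCl pH 7.4, odorant added at 2–20 µM final. Excitation 337 nm, emission 390–490 nm read 2 min after addition, triplicates. Ki = IC50/(1 + [1-NPN]/K1-NPN).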

[2] = molecular target: SfurOBP11 (Sogatella furcifera, UniProt V5T6E3); experiment: biochemical; type: binding
How it was run: as §1

[3] = molecular target: SfurOBP2 (Sogatella furcifera, UniProt V5T759); experiment: biochemical; type: binding
How it was run: as §1

[4] = molecular target: SfurOBP3 (Sogatella furcifera, UniProt V5T818); experiment: biochemical; type: binding; settings: for Fluorescence competitive binding assay, fluorescence intensity: OBP3, three replicate columns
How it was run: as §1

[5] = tested on: S. furcifera adults; experiment: Y-tube olfactometer behavioral trials; type: in vivo, Sogatella furcifera; settings: odorant 50 µL/L vs hexane; adults
How it was run: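 Single S. furcifera adults (2 days post-emergence, starved 0.5 h) chose between odorant (100 µL of 50 µL/L on filter paper) and hexane control in a glass Y-tube, charcoal-filtered humidified air 300 mL/min per arm, 25 ± 1 °C, 50% RH. Choice scored if insect passed half an arm and stayed >1 min within 10 min; 45 insects per compound, chi-squared test.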

Sequence of SfurOBP1 (V5T8N5 entry or part of it): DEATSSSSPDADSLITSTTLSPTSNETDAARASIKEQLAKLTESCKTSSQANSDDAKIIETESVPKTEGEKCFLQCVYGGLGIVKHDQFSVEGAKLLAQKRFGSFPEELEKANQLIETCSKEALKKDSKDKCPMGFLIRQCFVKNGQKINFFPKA
Sequence of SfurOBP3 (V5T818 entry or part of it): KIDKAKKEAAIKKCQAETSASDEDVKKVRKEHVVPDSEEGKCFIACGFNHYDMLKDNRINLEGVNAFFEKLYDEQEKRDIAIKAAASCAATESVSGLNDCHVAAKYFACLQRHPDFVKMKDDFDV
Sequence of SfurOBP2 (V5T759 entry or part of it): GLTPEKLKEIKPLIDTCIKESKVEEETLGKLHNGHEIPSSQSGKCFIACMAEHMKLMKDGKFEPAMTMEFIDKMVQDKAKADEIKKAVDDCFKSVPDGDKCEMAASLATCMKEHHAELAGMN
Sequence of SfurOBP11 (V5T6E3 entry or part of it): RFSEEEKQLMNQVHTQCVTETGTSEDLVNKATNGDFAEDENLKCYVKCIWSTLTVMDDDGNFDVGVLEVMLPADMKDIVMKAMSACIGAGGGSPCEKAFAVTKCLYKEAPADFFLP

Which IC50 [1] does the source give for `Cc1ccc(C(C)C)cc1` [4-isopropyltoluene] here?
The IC50 was greater than 20 µM.

What about the “Fluorescence competitive binding assay, fluorescence intensity” value ([1]; ligand concentration 2 (μM)) of the same molecule?
The value was 7244 and 8974 and 9151.

And the “Fluorescence competitive binding assay, fluorescence intensity” value ([1]; ligand concentration 4 (μM))?
The value was 8883 and 8922 and 8958.

And the “Fluorescence competitive binding assay, fluorescence intensity” value ([1]; ligand concentration 6 (μM))?
Its value is 7592 and 6723 and 7351.

What about the “Fluorescence competitive binding assay, fluorescence intensity” value ([1]; ligand concentration 8 (μM)) of the same molecule?
The value was 6920 and 7774 and 7302.

What about the “Fluorescence competitive binding assay, fluorescence intensity” value ([1]; ligand concentration 10 (μM)) of the same molecule?
The value was 7780 and 7649 and 7941.

And the “Fluorescence competitive binding assay, fluorescence intensity” value ([1]; ligand concentration 12 (μM))?
The value was 6330 and 8293 and 7991.

And the “Fluorescence competitive binding assay, fluorescence intensity” value ([1]; ligand concentration 14 (μM))?
The value was 6493 and 6423 and 6689.

And the “Fluorescence competitive binding assay, fluorescence intensity” value ([1]; ligand concentration 16 (μM))?
The value was 5419 and 7344 and 6052.

And the “Fluorescence competitive binding assay, fluorescence intensity” value ([1]; ligand concentration 18 (μM))?
The value was 6795 and 8973 and 7227.

And the “Fluorescence competitive binding assay, fluorescence intensity” value ([1]; ligand concentration 20 (μM))?
The value was 8723 and 7567 and 6306.

What about the IC50 [2] of the same molecule?
Its IC50 is greater than 20 µM.

And the “Fluorescence intensity, fluorescence competitive binding assay, OBP11” value (shortened to “Fluorescence intensity … OBP11”) ([2]; ligand concentration 2, replicate 1)?
The value was 35978.

And the “Fluorescence intensity … OBP11” value ([2]; ligand concentration 2, replicate 2)?
The value was 29566.

And the “Fluorescence intensity … OBP11” value ([2]; ligand concentration 2, replicate 3)?
The value was 32252.

And the “Fluorescence intensity … OBP11” value ([2]; ligand concentration 4, replicate 1)?
The value was 30015.

What about the “Fluorescence intensity … OBP11” value ([2]; ligand concentration 4, replicate 2) of the same molecule?
The value was 32067.

And the “Fluorescence intensity … OBP11” value ([2]; ligand concentration 4, replicate 3)?
Its value is 31035.

What about the “Fluorescence intensity … OBP11” value ([2]; ligand concentration 6, replicate 1) of the same molecule?
Its value is 30703.

What about the “Fluorescence intensity … OBP11” value ([2]; ligand concentration 6, replicate 2) of the same molecule?
Its value is 29596.

What about the “Fluorescence intensity … OBP11” value ([2]; ligand concentration 6, replicate 3) of the same molecule?
The value was 29854.

What about the “Fluorescence intensity … OBP11” value ([2]; ligand concentration 8, replicate 1) of the same molecule?
Its value is 26981.

What about the “Fluorescence intensity … OBP11” value ([2]; ligand concentration 8, replicate 2) of the same molecule?
Its value is 27991.

And the “Fluorescence intensity … OBP11” value ([2]; ligand concentration 8, replicate 3)?
Its value is 25842.

And the “Fluorescence intensity … OBP11” value ([2]; ligand concentration 10, replicate 1)?
The value was 25875.

What about the “Fluorescence intensity … OBP11” value ([2]; ligand concentration 10, replicate 2) of the same molecule?
The value was 25879.

And the “Fluorescence intensity … OBP11” value ([2]; ligand concentration 10, replicate 3)?
Its value is 25958.

And the “Fluorescence intensity … OBP11” value ([2]; ligand concentration 12, replicate 1)?
Its value is 23828.

And the “Fluorescence intensity … OBP11” value ([2]; ligand concentration 12, replicate 2)?
Its value is 23071.

And the “Fluorescence intensity … OBP11” value ([2]; ligand concentration 12, replicate 3)?
The value was 23450.

And the “Fluorescence intensity … OBP11” value ([2]; ligand concentration 14, replicate 1)?
The value was 21639.

What about the “Fluorescence intensity … OBP11” value ([2]; ligand concentration 14, replicate 2) of the same molecule?
Its value is 22165.

And the “Fluorescence intensity … OBP11” value ([2]; ligand concentration 14, replicate 3)?
Its value is 24226.

And the “Fluorescence intensity … OBP11” value ([2]; ligand concentration 16, replicate 1)?
The value was 19389.

And the “Fluorescence intensity … OBP11” value ([2]; ligand concentration 16, replicate 2)?
Its value is 17044.

What about the “Fluorescence intensity … OBP11” value ([2]; ligand concentration 16, replicate 3) of the same molecule?
Its value is 20238.

And the “Fluorescence intensity … OBP11” value ([2]; ligand concentration 18, replicate 1)?
The value was 24841.

What about the “Fluorescence intensity … OBP11” value ([2]; ligand concentration 18, replicate 2) of the same molecule?
Its value is 23918.

What about the “Fluorescence intensity … OBP11” value ([2]; ligand concentration 18, replicate 3) of the same molecule?
Its value is 23440.

And the “Fluorescence intensity … OBP11” value ([2]; ligand concentration 20, replicate 1)?
Its value is 24558.

And the “Fluorescence intensity … OBP11” value ([2]; ligand concentration 20, replicate 2)?
The value was 23570.

And the “Fluorescence intensity … OBP11” value ([2]; ligand concentration 20, replicate 3)?
The value was 24060.

What about the IC50 [3] of the same molecule?
The IC50 was greater than 20 µM.

What about the “Fluorescence competitive binding assay, OBP2 (raw fluorescence reading)” value ([3]; ligand concentration 2 (unit not given), replicate column 1 of 3) of the same molecule?
Its value is 17529.

What about the “Fluorescence competitive binding assay, OBP2 (raw fluorescence reading)” value ([3]; ligand concentration 2 (unit not given), replicate column 2 of 3) of the same molecule?
The value was 17068.

What about the “Fluorescence competitive binding assay, OBP2 (raw fluorescence reading)” value ([3]; ligand concentration 2 (unit not given), replicate column 3 of 3) of the same molecule?
Its value is 16667.

And the “Fluorescence competitive binding assay, OBP2 (raw fluorescence reading)” value ([3]; ligand concentration 4 (unit not given), replicate column 1 of 3)?
Its value is 17068.

And the “Fluorescence competitive binding assay, OBP2 (raw fluorescence reading)” value ([3]; ligand concentration 4 (unit not given), replicate column 2 of 3)?
Its value is 16662.

What about the “Fluorescence competitive binding assay, OBP2 (raw fluorescence reading)” value ([3]; ligand concentration 4 (unit not given), replicate column 3 of 3) of the same molecule?
Its value is 16270.

What about the “Fluorescence competitive binding assay, OBP2 (raw fluorescence reading)” value ([3]; ligand concentration 6 (unit not given), replicate column 1 of 3) of the same molecule?
Its value is 17127.

And the “Fluorescence competitive binding assay, OBP2 (raw fluorescence reading)” value ([3]; ligand concentration 6 (unit not given), replicate column 2 of 3)?
Its value is 17348.

What about the “Fluorescence competitive binding assay, OBP2 (raw fluorescence reading)” value ([3]; ligand concentration 6 (unit not given), replicate column 3 of 3) of the same molecule?
Its value is 16845.

What about the “Fluorescence competitive binding assay, OBP2 (raw fluorescence reading)” value ([3]; ligand concentration 8 (unit not given), replicate column 1 of 3) of the same molecule?
The value was 17260.

What about the “Fluorescence competitive binding assay, OBP2 (raw fluorescence reading)” value ([3]; ligand concentration 8 (unit not given), replicate column 2 of 3) of the same molecule?
The value was 16330.

What about the “Fluorescence competitive binding assay, OBP2 (raw fluorescence reading)” value ([3]; ligand concentration 8 (unit not given), replicate column 3 of 3) of the same molecule?
Its value is 16495.

And the “Fluorescence competitive binding assay, OBP2 (raw fluorescence reading)” value ([3]; ligand concentration 10 (unit not given), replicate column 1 of 3)?
The value was 16487.

What about the “Fluorescence competitive binding assay, OBP2 (raw fluorescence reading)” value ([3]; ligand concentration 10 (unit not given), replicate column 2 of 3) of the same molecule?
Its value is 17551.

And the “Fluorescence competitive binding assay, OBP2 (raw fluorescence reading)” value ([3]; ligand concentration 10 (unit not given), replicate column 3 of 3)?
The value was 16673.

What about the “Fluorescence competitive binding assay, OBP2 (raw fluorescence reading)” value ([3]; ligand concentration 12 (unit not given), replicate column 1 of 3) of the same molecule?
Its value is 14433.

And the “Fluorescence competitive binding assay, OBP2 (raw fluorescence reading)” value ([3]; ligand concentration 12 (unit not given), replicate column 2 of 3)?
The value was 15818.

What about the “Fluorescence competitive binding assay, OBP2 (raw fluorescence reading)” value ([3]; ligand concentration 12 (unit not given), replicate column 3 of 3) of the same molecule?
The value was 14693.

What about the “Fluorescence competitive binding assay, OBP2 (raw fluorescence reading)” value ([3]; ligand concentration 14 (unit not given), replicate column 1 of 3) of the same molecule?
The value was 14333.

What about the “Fluorescence competitive binding assay, OBP2 (raw fluorescence reading)” value ([3]; ligand concentration 14 (unit not given), replicate column 2 of 3) of the same molecule?
The value was 14565.

What about the “Fluorescence competitive binding assay, OBP2 (raw fluorescence reading)” value ([3]; ligand concentration 14 (unit not given), replicate column 3 of 3) of the same molecule?
The value was 13503.

What about the “Fluorescence competitive binding assay, OBP2 (raw fluorescence reading)” value ([3]; ligand concentration 16 (unit not given), replicate column 1 of 3) of the same molecule?
Its value is 12972.

And the “Fluorescence competitive binding assay, OBP2 (raw fluorescence reading)” value ([3]; ligand concentration 16 (unit not given), replicate column 2 of 3)?
Its value is 13456.

What about the “Fluorescence competitive binding assay, OBP2 (raw fluorescence reading)” value ([3]; ligand concentration 16 (unit not given), replicate column 3 of 3) of the same molecule?
Its value is 13282.

And the “Fluorescence competitive binding assay, OBP2 (raw fluorescence reading)” value ([3]; ligand concentration 18 (unit not given), replicate column 1 of 3)?
The value was 13043.

What about the “Fluorescence competitive binding assay, OBP2 (raw fluorescence reading)” value ([3]; ligand concentration 18 (unit not given), replicate column 2 of 3) of the same molecule?
Its value is 13102.

And the “Fluorescence competitive binding assay, OBP2 (raw fluorescence reading)” value ([3]; ligand concentration 18 (unit not given), replicate column 3 of 3)?
The value was 13475.

And the “Fluorescence competitive binding assay, OBP2 (raw fluorescence reading)” value ([3]; ligand concentration 20 (unit not given), replicate column 1 of 3)?
The value was 13105.

And the “Fluorescence competitive binding assay, OBP2 (raw fluorescence reading)” value ([3]; ligand concentration 20 (unit not given), replicate column 2 of 3)?
Its value is 12354.

And the “Fluorescence competitive binding assay, OBP2 (raw fluorescence reading)” value ([3]; ligand concentration 20 (unit not given), replicate column 3 of 3)?
The value was 13093.

And the IC50 [4]?
Its IC50 is greater than 20 µM.

And the “Fluorescence competitive binding assay, fluorescence intensity” value ([4]; ligand concentration 2)?
Its value is 76459 and 72745 and 73014.

And the “Fluorescence competitive binding assay, fluorescence intensity” value ([4]; ligand concentration 4)?
The value was 75454 and 75539 and 76517.

What about the “Fluorescence competitive binding assay, fluorescence intensity” value ([4]; ligand concentration 6) of the same molecule?
Its value is 77021 and 76644 and 73341.

And the “Fluorescence competitive binding assay, fluorescence intensity” value ([4]; ligand concentration 8)?
The value was 70448 and 67651 and 65820.

What about the “Fluorescence competitive binding assay, fluorescence intensity” value ([4]; ligand concentration 10) of the same molecule?
The value was 65984 and 64535 and 66083.

And the “Fluorescence competitive binding assay, fluorescence intensity” value ([4]; ligand concentration 12)?
The value was 59229 and 62714 and 59705.

What about the “Fluorescence competitive binding assay, fluorescence intensity” value ([4]; ligand concentration 14) of the same molecule?
The value was 51855 and 54624 and 58162.

What about the “Fluorescence competitive binding assay, fluorescence intensity” value ([4]; ligand concentration 16) of the same molecule?
Its value is 47509 and 50343 and 51946.

And the “Fluorescence competitive binding assay, fluorescence intensity” value ([4]; ligand concentration 18)?
Its value is 53658 and 55976 and 54775.

What about the “Fluorescence competitive binding assay, fluorescence intensity” value ([4]; ligand concentration 20) of the same molecule?
Its value is 49838 and 49582 and 48822.

What about the “number of insects choosing hexane arm” value [5] of the same molecule?
Its value is 13.

What about the “number of insects choosing volatilies arm” value [5] of the same molecule?
Its value is 11.

And the “number of insects failed (no choice)” value [5]?
The value was 16.
